Assays:
wild oat = assay: Test C postemergence; format: in vivo, Avena fatua
Summary of the method: (§1)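 Visual ratings on a 0–100 scale (100 = complete control) were made versus untreated controls after 13–15 greenhouse days. Chemicals in a surfactant-containing non-phytotoxic solvent were applied either preemergence to seeds in loam–sand soil or postemergence to 1- to 4-leaf plants 2–18 cm tall.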

pigweed = assay: Test A postemergence; format: in vivo, Amaranthus retroflexus; details: Amaranthus retroflexus, post-emergence, 0 to 100 scale, 0 no effect, 100 complete control, read-out: Plant response rating, Pigweed
Summary of the method: (§2)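 Visual 0–100 rating (100 = complete control) taken about 10 d post-treatment relative to untreated checks. Preemergence: directed soil spray on sown loam/sand pots. Postemergence: seedlings 2–10 cm, 1–2 leaf. Non-phytotoxic solvent formulation with surfactant.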

yellow nutsedge = assay: Test C postemergence; format: in vivo, Cyperus esculentus
Summary of the method: as §1

lambsquarters = assay: Test C postemergence; format: in vivo, Chenopodium album
Summary of the method: as §1

barnyardgrass [1] = assay: Test B flooded paddy test; format: in vivo, Echinochloa crus-galli; details: Echinochloa crus-galli; Flood, 250 g ai/ha; 0 to 100 scale where 0 is no effect and 100 is complete control; read-out: Plant response rating, Barnyardgrass
Summary of the method: (§3)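 Compound added straight to paddy water, with pots kept flooded 3 cm above soil, on plants grown to the 2-leaf stage. Visual scoring 0-100 (100 = complete control) against untreated controls after 13 to 15 greenhouse days.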

morningglory = assay: Test C postemergence; format: in vivo, Ipomoea coccinea
Summary of the method: as §1

sedge, umbrella = assay: Test B flooded paddy test; format: in vivo, Cyperus difformis; details: Cyperus difformis, Flood, 250 g ai/ha; 0 to 100 scale where 0 is no effect and 100 is complete control; read-out: Plant response rating, Sedge, Umbrella
Summary of the method: as §3

barnyardgrass [2] = assay: Test C postemergence; format: in vivo, Echinochloa crus-galli; details: Echinochloa crus-galli, post-emergence
Summary of the method: as §1

chickweed = assay: Test C postemergence; format: in vivo, Stellaria media; details: Stellaria media, post-emergence
Summary of the method: as §1

barnyardgrass [3] = assay: Test A preemergence; format: in vivo, Echinochloa crus-galli
Summary of the method: as §2

large (Lg) crabgrass = assay: Test C postemergence; format: in vivo, Digitaria sanguinalis; details: Digitaria sanguinalis, post-emergence
Summary of the method: as §1

rice = assay: Test B flooded paddy test; format: in vivo, Oryza sativa; details: Oryza sativa; Flood, 250 g ai/ha; 0 to 100 scale where 0 is no effect and 100 is complete control; read-out: Plant response rating, Rice
Summary of the method: as §3

giant foxtail = assay: Test C postemergence; format: in vivo, Setaria faberii; details: Setaria faberi, post-emergence
Summary of the method: as §1

barnyardgrass [4] = assay: Test A postemergence; format: in vivo, Echinochloa crus-galli; details: Echinochloa crus-galli, post-emergence, 240 h, 0 to 100 scale, 0 no effect, 100 complete control, read-out: Plant response rating, Barnyardgrass
Summary of the method: as §2

[5] = 31 g ai/ha, postemergence, visual rating, scale 0 to 100 (0 no effect, 100 complete control), 13 to 15 days

`N#Cc1cccc(Oc2ncc(Cl)cn2)c1-n1cc(C(F)F)cn1` [Compound 253, 3-(5-chloropyrimidin-2-yl)oxy-2-[4-(difluoromethyl)-1H-pyrazol-1-yl]benzonitrile] was tested, and the “Oat, Wild plant response rating” value (wild oat; [5]) was 0, the pest or weed control at 16 g/ha (wild oat; Avena fatua, post-emergence, 16 g ai/ha, postemergence, 0 is no effect, 100 is complete control, read-out: Plant response rating (0 to 100), Oat, Wild) was 0% and the pest or weed control at 125 g/ha (wild oat; Avena fatua, post-emergence, 125 g ai/ha, postemergence, visual rating, scale 0 to 100 (0 no effect, 100 complete control), read-out: Plant response rating, Oat, Wild) was 10%. For the same molecule, the pest or weed control at 62 g/ha (wild oat; Avena fatua, post-emergence, Postemergence, 62 g ai/ha, scale 0 to 100 (0 no effect, 100 complete control), 13 to 15 days, read-out: Plant response rating, Oat, Wild) was 10%, the pest or weed control at 31 g/ha (pigweed; 31 g ai/ha) was 90% and the pest or weed control at 125 g/ha (pigweed; 125 g ai/ha) was 100%. The “Nutsedge, Yellow plant response rating” value (yellow nutsedge; [5]) was 5, the pest or weed control at 16 g/ha (yellow nutsedge; Cyperus, post-emergence, 16 g ai/ha, postemergence, 0 is no effect, 100 is complete control, read-out: Plant response rating (0 to 100), Nutsedge, Yellow) was 5% and the pest or weed control at 125 g/ha (yellow nutsedge; Cyperus, post-emergence, 125 g ai/ha, postemergence, visual rating, scale 0 to 100 (0 no effect, 100 complete control), read-out: Plant response rating, Nutsedge, Yellow) was 5%. For the same molecule, the pest or weed control at 62 g/ha (yellow nutsedge; Cyperus, post-emergence, Postemergence, 62 g ai/ha, scale 0 to 100 (0 no effect, 100 complete control), 13 to 15 days, read-out: Plant response rating, Nutsedge, Yellow) was 5%, the “Lambsquarters plant response rating” value (lambsquarters; [5]) was 80 and the pest or weed control at 16 g/ha (lambsquarters; Chenopodium album, post-emergence, 16 g ai/ha, postemergence, 0 is no effect, 100 is complete control, read-out: Plant response rating (0 to 100), Lambsquarters) was 30%. It also gave a pest or weed control at 125 g/ha (lambsquarters; Chenopodium album, post-emergence, 125 g ai/ha, postemergence, visual rating, scale 0 to 100 (0 no effect, 100 complete control), read-out: Plant response rating, Lambsquarters) of 95%, a pest or weed control at 62 g/ha (lambsquarters; Chenopodium album, post-emergence, Postemergence, 62 g ai/ha, scale 0 to 100 (0 no effect, 100 complete control), 13 to 15 days, read-out: Plant response rating, Lambsquarters) of 80% and a pest or weed control at 250 g/ha (barnyardgrass [1]) of 40%. For the same molecule, the “Morningglory plant response rating” value (morningglory; [5]) was 75, the pest or weed control at 16 g/ha (morningglory; Ipomoea, post-emergence, 16 g ai/ha, postemergence, 0 is no effect, 100 is complete control, read-out: Plant response rating (0 to 100), Morningglory) was 60% and the pest or weed control at 125 g/ha (morningglory; Ipomoea, post-emergence, 125 g ai/ha, postemergence, visual rating, scale 0 to 100 (0 no effect, 100 complete control), read-out: Plant response rating, Morningglory) was 85%. The pest or weed control at 62 g/ha (morningglory; Ipomoea, post-emergence, Postemergence, 62 g ai/ha, scale 0 to 100 (0 no effect, 100 complete control), 13 to 15 days, read-out: Plant response rating, Morningglory) was 75%, the pest or weed control at 250 g/ha (sedge, umbrella) was 85% and the pest or weed control at 16 g/ha (barnyardgrass [2]; 16 g ai/ha, postemergence, 0 is no effect, 100 is complete control, read-out: Plant response rating (0 to 100), Barnyardgrass) was 5%. It also gave a pest or weed control at 31 g/ha (barnyardgrass [2]; 31 g ai/ha, postemergence, visual rating, scale 0 to 100 (0 no effect, 100 complete control), 13 to 15 days, read-out: Barnyardgrass plant response rating) of 5%, a pest or weed control at 125 g/ha (barnyardgrass [2]; 125 g ai/ha, postemergence, visual rating, scale 0 to 100 (0 no effect, 100 complete control), read-out: Plant response rating, Barnyardgrass) of 20% and a pest or weed control at 62 g/ha (barnyardgrass [2]; Postemergence, 62 g ai/ha, scale 0 to 100 (0 no effect, 100 complete control), read-out: Plant response rating, Barnyardgrass) of 10%. The pest or weed control at 16 g/ha (chickweed; 16 g ai/ha, postemergence, 0 is no effect, 100 is complete control, read-out: Plant response rating (0 to 100), Chickweed) was 60%, the pest or weed control at 31 g/ha (chickweed; 31 g ai/ha, postemergence, visual rating, scale 0 to 100 (0 no effect, 100 complete control), 13 to 15 days, read-out: Chickweed plant response rating) was 70% and the pest or weed control at 125 g/ha (chickweed; 125 g ai/ha, postemergence, visual rating, scale 0 to 100 (0 no effect, 100 complete control), read-out: Plant response rating, Chickweed) was 90%. For the same molecule, the pest or weed control at 62 g/ha (chickweed; Postemergence, 62 g ai/ha, scale 0 to 100 (0 no effect, 100 complete control), 13 to 15 days, read-out: Plant response rating, Chickweed) was 90%, the “Barnyardgrass plant response rating (0 to 100 scale, 0 is no effect, 100 is complete control)” value (barnyardgrass [3]; 125 g ai/ha) was 100 and the pest or weed control at 31 g/ha (barnyardgrass [3]; Echinochloa crus-galli, pre-emergence, 240 h, 31 g ai/ha, 0 to 100 scale where 0 is no effect and 100 is complete control, visual, approximately 10 days, read-out: Plant response rating, Barnyardgrass) was 50%. It also gave a pest or weed control at 16 g/ha (large (Lg) crabgrass; 16 g ai/ha, postemergence, 0 is no effect, 100 is complete control, read-out: Plant response rating (0 to 100), Crabgrass, Large) of 5%, a pest or weed control at 31 g/ha (large (Lg) crabgrass; 31 g ai/ha, postemergence, visual rating, scale 0 to 100 (0 no effect, 100 complete control), 13 to 15 days, read-out: Crabgrass, Large plant response rating) of 5% and a pest or weed control at 125 g/ha (large (Lg) crabgrass; 125 g ai/ha, postemergence, visual rating, scale 0 to 100 (0 no effect, 100 complete control), read-out: Plant response rating, Crabgrass, Large) of 20%. It also gave a pest or weed control at 62 g/ha (large (Lg) crabgrass; Postemergence, 62 g ai/ha, scale 0 to 100 (0 no effect, 100 complete control), 13 to 15 days, read-out: Plant response rating, Crabgrass, Large) of 15%, a plant injury at 250 g/ha (rice) of 25% and a pest or weed control at 16 g/ha (giant foxtail; 16 g ai/ha, postemergence, 0 is no effect, 100 is complete control, read-out: Plant response rating (0 to 100), Foxtail, Giant) of 10%. The pest or weed control at 31 g/ha (giant foxtail; 31 g ai/ha, postemergence, visual rating, scale 0 to 100 (0 no effect, 100 complete control), 13 to 15 days, read-out: Foxtail, Giant plant response rating) was 45%, the pest or weed control at 125 g/ha (giant foxtail; 125 g ai/ha, postemergence, visual rating, scale 0 to 100 (0 no effect, 100 complete control), read-out: Plant response rating, Foxtail, Giant) was 20% and the pest or weed control at 62 g/ha (giant foxtail; Postemergence, 62 g ai/ha, scale 0 to 100 (0 no effect, 100 complete control), 13 to 15 days, read-out: Plant response rating, Foxtail, Giant) was 25%. It also gave a pest or weed control at 31 g/ha (barnyardgrass [4]; 31 g ai/ha) of 20% and a pest or weed control at 125 g/ha (barnyardgrass [4]; 125 g ai/ha) of 100%.

— US9695155B2, “Herbicidal substituted pyrimidinyloxy benzene compounds” (E. I. DU PONT DE NEMOURS AND COMPANY, priority 2013, dated 2017)
